Results: PubChem BioAssay (NCI)
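Following 48 hours of exposure in 96-well plates, responses at five concentrations were used to interpolate endpoints linearly. GI50 = concentration required for 50% inhibition of growth. The concentration for full growth arrest is given as TGI.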

test system: 786-0 renal; assay: NCI-60 cell line screen, 48 h

Work on CCOC(=O)C1CCN(S(=O)(=O)/N=C2/NC(=O)NC2=C(Cl)Cl)CC1 yielded a GI50 of 0.545 µM.

CCOC(=O)C1CCN(S(=O)(=O)/N=C2/NC(=O)NC2=C(Cl)Cl)CC1 was tested, and the TGI was 6.64 µM.

test system: HCT-15 colon; assay: NCI-60 cell line screen, 48 h

O=C(Nc1nnc(-c2ccc(Cl)cc2)o1)C(SC(=S)N1CCOCC1)c1ccccc1 (stereo not drawn) and CC(C)c1ccc(-c2cc(-c3cn[nH]c3-c3ccccn3)ccn2)cc1 cannot be ordered by TGI: greater than 100 µM for the first, greater than 25 µM for the second.

First: CCNCCNc1cc(-c2ccc(C(F)(F)F)cc2)c(C#N)c2nc3ccccc3n12
Second: CCOC(=O)C1CCN(S(=O)(=O)/N=C2/NC(=O)NC2=C(Cl)Cl)CC1
The TGI of the first is 1.9-fold lower: 1.9 µM for the first, 3.56 µM for the second.

In order of rising GI50:
1. CCNCCNc1cc(-c2ccc(C(F)(F)F)cc2)c(C#N)c2nc3ccccc3n12  0.612 µM
2. CCOC(=O)C1CCN(S(=O)(=O)/N=C2/NC(=O)NC2=C(Cl)Cl)CC1  1.82 µM
3. CC(C)c1ccc(-c2cc(-c3cn[nH]c3-c3ccccn3)ccn2)cc1  8.65 µM

test system: EKVX NSCLC; assay: NCI-60 cell line screen, 48 h

O=C(Nc1nnc(-c2ccc(Cl)cc2)o1)C(SC(=S)N1CCOCC1)c1ccccc1 (stereo not drawn) and CC(C)c1ccc(-c2cc(-c3cn[nH]c3-c3ccccn3)ccn2)cc1 cannot be ordered by TGI: 59.7 µM for the first, greater than 25 µM for the second.

Going from CCNCCNc1cc(-c2ccc(C(F)(F)F)cc2)c(C#N)c2nc3ccccc3n12 to CCOC(=O)C1CCN(S(=O)(=O)/N=C2/NC(=O)NC2=C(Cl)Cl)CC1, the TGI rises from 3.07 µM to 4.79 µM (1.6-fold).

In order of rising GI50:
1. CCNCCNc1cc(-c2ccc(C(F)(F)F)cc2)c(C#N)c2nc3ccccc3n12  1.62 µM
2. CCOC(=O)C1CCN(S(=O)(=O)/N=C2/NC(=O)NC2=C(Cl)Cl)CC1  1.99 µM
3. CC(C)c1ccc(-c2cc(-c3cn[nH]c3-c3ccccn3)ccn2)cc1  11.3 µM

test system: RXF 393 renal; assay: NCI-60 cell line screen, 48 h

O=C(Nc1nnc(-c2ccc(Cl)cc2)o1)C(SC(=S)N1CCOCC1)c1ccccc1 (stereo not drawn) and CC(C)c1ccc(-c2cc(-c3cn[nH]c3-c3ccccn3)ccn2)cc1 cannot be ordered by TGI: greater than 100 µM for the first, greater than 25 µM for the second.

CCNCCNc1cc(-c2ccc(C(F)(F)F)cc2)c(C#N)c2nc3ccccc3n12 and CCOC(=O)C1CCN(S(=O)(=O)/N=C2/NC(=O)NC2=C(Cl)Cl)CC1 are within 1.5-fold of each other in TGI: 3.16 µM for the first, 3.06 µM for the second.

Going from CC(C)c1ccc(-c2cc(-c3cn[nH]c3-c3ccccn3)ccn2)cc1 to CCNCCNc1cc(-c2ccc(C(F)(F)F)cc2)c(C#N)c2nc3ccccc3n12, the GI50 falls from greater than 18.5 µM to 1.69 µM.

CCOC(=O)C1CCN(S(=O)(=O)/N=C2/NC(=O)NC2=C(Cl)Cl)CC1 was tested, and the GI50 was 1.61 µM.

test system: KM12 colon; assay: NCI-60 cell line screen, 48 h

O=C(Nc1nnc(-c2ccc(Cl)cc2)o1)C(SC(=S)N1CCOCC1)c1ccccc1 (stereo not drawn) and CC(C)c1ccc(-c2cc(-c3cn[nH]c3-c3ccccn3)ccn2)cc1 cannot be ordered by TGI: greater than 100 µM for the first, greater than 25 µM for the second.

Compared with CCNCCNc1cc(-c2ccc(C(F)(F)F)cc2)c(C#N)c2nc3ccccc3n12, CCOC(=O)C1CCN(S(=O)(=O)/N=C2/NC(=O)NC2=C(Cl)Cl)CC1 is 3.4-fold higher in TGI: 3.07 µM for the first, 10.5 µM for the second.

In order of falling GI50:
1. CC(C)c1ccc(-c2cc(-c3cn[nH]c3-c3ccccn3)ccn2)cc1  9.83 µM
2. CCNCCNc1cc(-c2ccc(C(F)(F)F)cc2)c(C#N)c2nc3ccccc3n12  1.51 µM
3. CCOC(=O)C1CCN(S(=O)(=O)/N=C2/NC(=O)NC2=C(Cl)Cl)CC1  0.254 µM

test system: NCI-H226 lung; assay: NCI-60 cell line screen, 48 h

O=C(Nc1nnc(-c2ccc(Cl)cc2)o1)C(SC(=S)N1CCOCC1)c1ccccc1 (stereo not drawn) and CC(C)c1ccc(-c2cc(-c3cn[nH]c3-c3ccccn3)ccn2)cc1 cannot be ordered by TGI: 56.4 µM for the first, greater than 25 µM for the second.

First: CCNCCNc1cc(-c2ccc(C(F)(F)F)cc2)c(C#N)c2nc3ccccc3n12
Second: CCOC(=O)C1CCN(S(=O)(=O)/N=C2/NC(=O)NC2=C(Cl)Cl)CC1
The TGI of the first is 2.8-fold lower: 3.53 µM for the first, 9.94 µM for the second.

In order of rising GI50:
1. CCNCCNc1cc(-c2ccc(C(F)(F)F)cc2)c(C#N)c2nc3ccccc3n12  1.7 µM
2. CCOC(=O)C1CCN(S(=O)(=O)/N=C2/NC(=O)NC2=C(Cl)Cl)CC1  2.86 µM
3. CC(C)c1ccc(-c2cc(-c3cn[nH]c3-c3ccccn3)ccn2)cc1  12.1 µM

test system: CCRF-CEM leukemia; assay: NCI-60 cell line screen, 48 h

O=C(Nc1nnc(-c2ccc(Cl)cc2)o1)C(SC(=S)N1CCOCC1)c1ccccc1 (stereo not drawn) and CC(C)c1ccc(-c2cc(-c3cn[nH]c3-c3ccccn3)ccn2)cc1 cannot be ordered by TGI: greater than 100 µM for the first, greater than 25 µM for the second.

Compared with CCNCCNc1cc(-c2ccc(C(F)(F)F)cc2)c(C#N)c2nc3ccccc3n12, CCOC(=O)C1CCN(S(=O)(=O)/N=C2/NC(=O)NC2=C(Cl)Cl)CC1 is 4.6-fold higher in TGI: 0.683 µM for the first, 3.16 µM for the second.

In order of rising GI50:
1. CCNCCNc1cc(-c2ccc(C(F)(F)F)cc2)c(C#N)c2nc3ccccc3n12  0.266 µM
2. CCOC(=O)C1CCN(S(=O)(=O)/N=C2/NC(=O)NC2=C(Cl)Cl)CC1  1.23 µM
3. CC(C)c1ccc(-c2cc(-c3cn[nH]c3-c3ccccn3)ccn2)cc1  10.8 µM

test system: CAKI-1 renal; assay: NCI-60 cell line screen, 48 h

O=C(Nc1nnc(-c2ccc(Cl)cc2)o1)C(SC(=S)N1CCOCC1)c1ccccc1 (stereo not drawn) and CC(C)c1ccc(-c2cc(-c3cn[nH]c3-c3ccccn3)ccn2)cc1 cannot be ordered by TGI: greater than 100 µM for the first, greater than 25 µM for the second.

With CCNCCNc1cc(-c2ccc(C(F)(F)F)cc2)c(C#N)c2nc3ccccc3n12 the TGI was 2.31 µM.

In order of rising GI50:
1. CCNCCNc1cc(-c2ccc(C(F)(F)F)cc2)c(C#N)c2nc3ccccc3n12  1.11 µM
2. CC(C)c1ccc(-c2cc(-c3cn[nH]c3-c3ccccn3)ccn2)cc1  19.1 µM

test system: COLO 205 colon; assay: NCI-60 cell line screen, 48 h

O=C(Nc1nnc(-c2ccc(Cl)cc2)o1)C(SC(=S)N1CCOCC1)c1ccccc1 (stereo not drawn) and CC(C)c1ccc(-c2cc(-c3cn[nH]c3-c3ccccn3)ccn2)cc1 cannot be ordered by TGI: 28.8 µM for the first, greater than 25 µM for the second.

First: CCNCCNc1cc(-c2ccc(C(F)(F)F)cc2)c(C#N)c2nc3ccccc3n12
Second: CCOC(=O)C1CCN(S(=O)(=O)/N=C2/NC(=O)NC2=C(Cl)Cl)CC1
The TGI of the first is 1.6-fold lower: 2.41 µM for the first, 3.83 µM for the second.

In order of rising GI50:
1. CCNCCNc1cc(-c2ccc(C(F)(F)F)cc2)c(C#N)c2nc3ccccc3n12  1.01 µM
2. CCOC(=O)C1CCN(S(=O)(=O)/N=C2/NC(=O)NC2=C(Cl)Cl)CC1  2.08 µM
3. CC(C)c1ccc(-c2cc(-c3cn[nH]c3-c3ccccn3)ccn2)cc1  13.3 µM

test system: SNB-19 CNS; assay: NCI-60 cell line screen, 48 h

O=C(Nc1nnc(-c2ccc(Cl)cc2)o1)C(SC(=S)N1CCOCC1)c1ccccc1 (stereo not drawn) and CC(C)c1ccc(-c2cc(-c3cn[nH]c3-c3ccccn3)ccn2)cc1 cannot be ordered by TGI: greater than 100 µM for the first, greater than 25 µM for the second.

Compared with CCNCCNc1cc(-c2ccc(C(F)(F)F)cc2)c(C#N)c2nc3ccccc3n12, CCOC(=O)C1CCN(S(=O)(=O)/N=C2/NC(=O)NC2=C(Cl)Cl)CC1 is 1.5-fold higher in TGI: 3.32 µM for the first, 5.11 µM for the second.

In order of falling GI50:
1. CC(C)c1ccc(-c2cc(-c3cn[nH]c3-c3ccccn3)ccn2)cc1  20.5 µM
2. CCOC(=O)C1CCN(S(=O)(=O)/N=C2/NC(=O)NC2=C(Cl)Cl)CC1  1.84 µM
3. CCNCCNc1cc(-c2ccc(C(F)(F)F)cc2)c(C#N)c2nc3ccccc3n12  1.72 µM

test system: A498 renal; assay: NCI-60 cell line screen, 48 h

O=C(Nc1nnc(-c2ccc(Cl)cc2)o1)C(SC(=S)N1CCOCC1)c1ccccc1 (stereo not drawn) and CC(C)c1ccc(-c2cc(-c3cn[nH]c3-c3ccccn3)ccn2)cc1 cannot be ordered by TGI: 56.5 µM for the first, greater than 25 µM for the second.

First: CCNCCNc1cc(-c2ccc(C(F)(F)F)cc2)c(C#N)c2nc3ccccc3n12
Second: CCOC(=O)C1CCN(S(=O)(=O)/N=C2/NC(=O)NC2=C(Cl)Cl)CC1
The TGI of the first is 3.6-fold lower: 3.33 µM for the first, 12.1 µM for the second.

First: CC(C)c1ccc(-c2cc(-c3cn[nH]c3-c3ccccn3)ccn2)cc1
Second: CCNCCNc1cc(-c2ccc(C(F)(F)F)cc2)c(C#N)c2nc3ccccc3n12
The GI50 of the first is higher: greater than 13.6 µM for the first, 1.86 µM for the second.

With CCOC(=O)C1CCN(S(=O)(=O)/N=C2/NC(=O)NC2=C(Cl)Cl)CC1 the GI50 was 2.65 µM.

test system: NCI-H522 lung; assay: NCI-60 cell line screen, 48 h

O=C(Nc1nnc(-c2ccc(Cl)cc2)o1)C(SC(=S)N1CCOCC1)c1ccccc1 (stereo not drawn) and CC(C)c1ccc(-c2cc(-c3cn[nH]c3-c3ccccn3)ccn2)cc1 cannot be ordered by TGI: 48.9 µM for the first, greater than 25 µM for the second.

CCNCCNc1cc(-c2ccc(C(F)(F)F)cc2)c(C#N)c2nc3ccccc3n12 and CCOC(=O)C1CCN(S(=O)(=O)/N=C2/NC(=O)NC2=C(Cl)Cl)CC1 are within 1.5-fold of each other in TGI: 3.66 µM for the first, 4.28 µM for the second.

In order of rising GI50:
1. CCNCCNc1cc(-c2ccc(C(F)(F)F)cc2)c(C#N)c2nc3ccccc3n12  1.82 µM
2. CCOC(=O)C1CCN(S(=O)(=O)/N=C2/NC(=O)NC2=C(Cl)Cl)CC1  2.22 µM
3. CC(C)c1ccc(-c2cc(-c3cn[nH]c3-c3ccccn3)ccn2)cc1  6.82 µM

test system: NCI-H460 lung; assay: NCI-60 cell line screen, 48 h

O=C(Nc1nnc(-c2ccc(Cl)cc2)o1)C(SC(=S)N1CCOCC1)c1ccccc1 (stereo not drawn) and CC(C)c1ccc(-c2cc(-c3cn[nH]c3-c3ccccn3)ccn2)cc1 cannot be ordered by TGI: 53.3 µM for the first, greater than 25 µM for the second.

Compared with CCNCCNc1cc(-c2ccc(C(F)(F)F)cc2)c(C#N)c2nc3ccccc3n12, CCOC(=O)C1CCN(S(=O)(=O)/N=C2/NC(=O)NC2=C(Cl)Cl)CC1 is 4.2-fold higher in TGI: 2.73 µM for the first, 11.4 µM for the second.

In order of rising GI50:
1. CCNCCNc1cc(-c2ccc(C(F)(F)F)cc2)c(C#N)c2nc3ccccc3n12  1.22 µM
2. CCOC(=O)C1CCN(S(=O)(=O)/N=C2/NC(=O)NC2=C(Cl)Cl)CC1  3.19 µM
3. CC(C)c1ccc(-c2cc(-c3cn[nH]c3-c3ccccn3)ccn2)cc1  7.64 µM

test system: PC-3 prostate; assay: NCI-60 cell line screen, 48 h

O=C(Nc1nnc(-c2ccc(Cl)cc2)o1)C(SC(=S)N1CCOCC1)c1ccccc1 (stereo not drawn) and CC(C)c1ccc(-c2cc(-c3cn[nH]c3-c3ccccn3)ccn2)cc1 cannot be ordered by TGI: 55.1 µM for the first, greater than 25 µM for the second.

CCNCCNc1cc(-c2ccc(C(F)(F)F)cc2)c(C#N)c2nc3ccccc3n12 and CCOC(=O)C1CCN(S(=O)(=O)/N=C2/NC(=O)NC2=C(Cl)Cl)CC1 are within 1.5-fold of each other in TGI: 2.95 µM for the first, 2.58 µM for the second.

In order of falling GI50:
1. CC(C)c1ccc(-c2cc(-c3cn[nH]c3-c3ccccn3)ccn2)cc1  9 µM
2. CCNCCNc1cc(-c2ccc(C(F)(F)F)cc2)c(C#N)c2nc3ccccc3n12  1.54 µM
3. CCOC(=O)C1CCN(S(=O)(=O)/N=C2/NC(=O)NC2=C(Cl)Cl)CC1  0.621 µM

test system: RPMI-8226 leukemia; assay: NCI-60 cell line screen, 48 h

O=C(Nc1nnc(-c2ccc(Cl)cc2)o1)C(SC(=S)N1CCOCC1)c1ccccc1 (stereo not drawn) and CC(C)c1ccc(-c2cc(-c3cn[nH]c3-c3ccccn3)ccn2)cc1 cannot be ordered by TGI: greater than 100 µM for the first, greater than 25 µM for the second.

Compared with CCNCCNc1cc(-c2ccc(C(F)(F)F)cc2)c(C#N)c2nc3ccccc3n12, CCOC(=O)C1CCN(S(=O)(=O)/N=C2/NC(=O)NC2=C(Cl)Cl)CC1 is 2.8-fold higher in TGI: 3.61 µM for the first, 10.1 µM for the second.

In order of falling GI50:
1. CC(C)c1ccc(-c2cc(-c3cn[nH]c3-c3ccccn3)ccn2)cc1  11.9 µM
2. CCNCCNc1cc(-c2ccc(C(F)(F)F)cc2)c(C#N)c2nc3ccccc3n12  1.36 µM
3. CCOC(=O)C1CCN(S(=O)(=O)/N=C2/NC(=O)NC2=C(Cl)Cl)CC1  0.327 µM
